Several values for one entry are separate records, joined by “and”; a condition that tells them apart may be missing. Equal values may be shown once. One block for each compound: values may come before it.
How the values were obtained:
mushroom tyrosinase [1] = assay: Mushroom tyrosinase inhibition assay; assay type: biochemical; conditions: for IC50: L-tyrosine as substrate, mean of 3 experiments, read-out: IC50 against mushroom tyrosinase; for fold lower tyrosinase inhibitory activity than 2b: ratio of IC50 values vs 2b
Protocol: The absorbances of dopachrome produced in each well during incubation was measured at 450 nm using a microplate reader (VersaMax™, Molecular Devices, Sunnyvale, CA, USA). […] All experiments were independently conducted 3 times. To calculate the % inhibition of tyrosinase activity, the following formula was used: % inhibition = […], where A means the optical density of the test samples and B means the optical density of the non-treated control. To calculate the concentration necessary for 50% inhibition of enzyme activity (IC50), the % tyrosinase inhibition of each compound was obtained at 3 or more different concentrations. IC50 values were calculated by constructing a linear regression curve showing the concentration of the (Z)-BTTZ compounds on the x-axis and percentage inhibition on the y-axis. To obtain a negative control dimethyl sulfoxide (DMSO) was added instead of the (Z)-BTTZ compounds.

[2] = test system: cellular tyrosinase in B16F10 melanoma cells; assay: Cellular tyrosinase activity assay (L-DOPA oxidation) in α-MSH-stimulated cells; assay type: cell-based, murine; conditions: for reduction in cellular tyrosinase activity: 48 h
Protocol: The inhibitory activities of compounds 2b and 2f against cellular tyrosinase were assessed using α-MSH-stimulated melanoma cells. […] The inhibitory effects on tyrosinase activity were evaluated by measuring optical densities.
Tyrosinase activities were assessed by determining the L-DOPA oxidation rate, as described previously with minor modifications. […] Cells were then rinsed twice with PBS, exposed to 100 µL of lysis buffer (90 µL of 50 mM phosphate buffer pH 6.8; 5 µL of 2 mM PMSF; 5 µL of 20% Triton), and frozen at −80 °C for 30 min. After defrosting, lysates were centrifuged at 12,000 g for 30 min at 4 °C, and supernatants (80 µL) were mixed with 10 mM L-DOPA (20 µL) in a 96-well plate. Absorbances were measured at 490 nm at 37 °C every 10 min for 1 h using a microplate reader (VersaMax^TM, Molecular Devices, Sunnyvale, CA, USA). All experiments were carried out three times in triplicate.
Bars represent standard errors.

B16F10 melanoma cells [3] = assay: Cell viability, EZ-Cytox assay; assay type: cell-based, murine; conditions: concentrations ≤25 µM; 24 and 48 h for 2b and 2f, respectively
Protocol: Before examining the inhibitory effects of compounds 2b and 2f on tyrosinase and melanin biosynthesis, we investigated their cytotoxic effects using murine B16F10 melanoma cells. The cells were treated with different concentrations of 2b or 2f (0, 1, 2.5, 5, 10, or 25 µM) for 24 and 48 h (Figure 7), respectively, and the cell viabilities were assessed using the EZ-Cytox assay.
Cell viability assays of compounds 2b and 2f were performed using B16F10 melanoma cells and the EZ-Cytox assay (EZ-3000, DoGenBio, Seoul, Korea), as previously described. Briefly, cells were seeded at a density of 1 × 10^4 cells/well in a 96-well plate for 24 h, and then were exposed to different concentrations (0, 1, 2.5, 5, 10, or 25 µM) of 2b or 2f and incubated at 37 °C for 24 and 48 h, respectively. EZ-Cytox solution (10 µL) was then added to each well and cells were incubated at 37 °C for 2 h. Absorbances were measured at 450 nm using a microplate reader (VersaMax^TM, Molecular Devices, Sunnyvale, CA, USA). Each assay was performed in triplicate.
Figure 7 The cytotoxic effects of compounds 2b (a) and 2f (b) on B16F10 melanoma cells at concentrations of 1, 2.5, 5, 10, or 25 µM. Cell viabilities were determined using the EZ-Cytox assay and are expressed as percentages versus non-treated controls. Bars present standard errors.

B16F10 melanoma cells [4] = assay: Melanin content assay in α-MSH-stimulated cells; assay type: cell-based, murine; conditions: for reduction in melanin content: 48 h
Protocol: Melanin content assays were used to evaluate the inhibitory effects of compounds 2b and 2f on α-MSH-stimulated melanogenesis. […] The inhibitory activities on α-MSH-stimulated melanogenesis were determined by measuring melanin optical densities. The anti-melanogenesis activities of compounds 2b and 2f were assessed using a standard melanin content assay with minor modifications. Briefly, B16F10 cells were seeded at a density of 5 × 10^4/well in a 24-well plate and allowed to adhere to wells in a DMEM solution containing penicillin/streptomycin (100 IU/100 µg/mL) and 10% heat-inactivated FBS in a standard humidified 5% CO2 atmosphere at 37 °C. […] Cells were then rinsed twice with PBS and lysed in 200 µL of 1N NaOH containing 10% dimethyl sulfoxide (DMSO) for 1 h at 60 °C. Lysates were transferred to the wells of a 96-well plate, and melanin absorbances were measured at 405 nm using a microplate reader (VersaMax^TM, Molecular Devices, Sunnyvale, CA, USA). All experiments were conducted three times in triplicate. […] Bars represent standard errors.

mushroom tyrosinase [5] = assay: Kinetic study of mushroom tyrosinase inhibition (Lineweaver–Burk plots); assay type: biochemical; conditions: L-tyrosine 0.5–8.0 mM
Protocol: To investigate the modes of action of compounds 2b and 2f, a kinetic study was performed using mushroom tyrosinase and different concentrations of L-tyrosine as a substrate in the presence of 2b or 2f. As depicted in Figure 4, inhibitory mechanisms were determined using Lineweaver–Burk plot analysis. The Lineweaver–Burk plot patterns of 2b and 2f were similar. The plots obtained at different concentrations of 2b and 2f merged at single points on the y-axis. Regardless of the concentration, the Vmax values of 2b and 2f were independent of concentration, whereas their KM values increased concentration-dependently.
Compounds 2b or 2f (10 µL, final concentrations: 0, 0.05, 0.1, or 0.2 µM for 2b and 0, 2, 4, or 8 µM for 2f) and mushroom tyrosinase solution (20 µL, 150 units) were added to the wells of a 96-well plate containing aqueous solutions (170 µL) containing L-tyrosine at 0.5, 1.0, 2.0, 4.0, or 8.0 mM (final concentrations), distilled water, and potassium phosphate buffer (final concentration: 14.7 mM, pH 6.5), in the ratio 10:9:10. Initial rates of dopachrome formation in reaction mixtures were calculated by measuring increases in absorbances at 492 nm (ΔOD492/min) using a microplate reader (VersaMax^TM, Molecular Devices, Sunnyvale, CA, USA). […] Modes of tyrosinase inhibition were determined using points of convergence. […]

[6] = 25 µM compound, α-MSH 0.5 µM, 48 h (α-MSH alone 1.61-fold)

SMILES: COc1ccc(/C=C2\SC(=O)NC2=S)c(OC)c1 [Compound 2k, (Z)-5-(2,4-Dimethoxybenzylidene)-4-thioxothiazolidin-2-one]
IC50 (mushroom tyrosinase [1]): 126.4 ± 0.46 µM

SMILES: O=C1NC(=S)/C(=C/c2ccccc2O)S1 [Compound 2h, (Z)-5-(2-Hydroxybenzylidene)-4-thioxothiazolidin-2-one]
IC50 (mushroom tyrosinase [1]): 147.6 ± 0.96 µM
fold lower tyrosinase inhibitory activity than 2b (mushroom tyrosinase [1]): 314 fold

SMILES: O=C1NC(=S)/C(=C/c2ccc(O)cc2O)S1 [Compound 2b, (Z)-5-(2,4-Dihydroxybenzylidene)-4-thioxothiazolidin-2-one]
reduction in cellular tyrosinase activity ([2]; 5 µM compound, α-MSH 0.5 µM): 16%
cellular tyrosinase activity versus non-treated cells ([2]; 5 µM compound, α-MSH 0.5 µM, 48 h (α-MSH alone 2.19-fold)): 1.85 fold
reduction in cellular tyrosinase activity ([2]; 10 µM compound, α-MSH 0.5 µM): 32%
cellular tyrosinase activity versus non-treated cells ([2]; 10 µM compound, α-MSH 0.5 µM, 48 h (α-MSH alone 2.19-fold)): 1.48 fold
reduction in cellular tyrosinase activity ([2]; 25 µM compound, α-MSH 0.5 µM): 45%
cellular tyrosinase activity versus non-treated cells ([2]; 25 µM compound, α-MSH 0.5 µM, 48 h (α-MSH alone 2.19-fold)): 1.20 fold
cytotoxic effect on B16F10 cells (B16F10 melanoma cells [3]): Neither 2b nor 2f exhibited any significant cytotoxic effect
reduction in melanin content (B16F10 melanoma cells [4]; 5 µM compound, α-MSH 0.5 µM): 26%
melanin level versus non-treated controls (B16F10 melanoma cells [4]; 5 µM compound, α-MSH 0.5 µM, 48 h (α-MSH alone 1.61-fold)): 1.19 fold
reduction in melanin content (B16F10 melanoma cells [4]; 10 µM compound, α-MSH 0.5 µM): 44%
melanin level versus non-treated controls (B16F10 melanoma cells [4]; 10 µM compound, α-MSH 0.5 µM, 48 h (α-MSH alone 1.61-fold)): 0.91 fold
reduction in melanin content (B16F10 melanoma cells [4]; 25 µM compound, α-MSH 0.5 µM): 47%
melanin level versus non-treated controls (B16F10 melanoma cells [4]; [6]): 0.85 fold
fold higher inhibitory potency than kojic acid (mushroom tyrosinase) (mushroom tyrosinase [1]; ratio of IC50 values vs kojic acid): 141 fold and > 100 fold
mode of mushroom tyrosinase inhibition (mushroom tyrosinase [5]): competitive

SMILES: COc1ccc(/C=C2\SC(=O)NC2=S)cc1 [Compound 2j, (Z)-5-(4-Methoxybenzylidene)-4-thioxothiazolidin-2-one]
IC50 (mushroom tyrosinase [1]): 30.8 ± 1.41 µM

SMILES: O=C1NC(=S)/C(=C/c2ccc(O)c(Br)c2)S1 [Compound 2i, (Z)-5-(3-Bromo-4-hydroxybenzylidene)-4-thioxothiazolidin-2-one]
IC50 (mushroom tyrosinase [1]): 26.3 ± 4.1 µM

SMILES: O=c1cc(CO)occ1O [Kojic acid, reference compound]
reduction in cellular tyrosinase activity ([2]; 25 µM compound, α-MSH 0.5 µM): 14%
reduction in cellular tyrosinase activity ([2]; 25 µM compound, α-MSH 1.0 µM): 33%
reduction in melanin content (B16F10 melanoma cells [4]; 25 µM compound, α-MSH 0.5 µM): 14%
melanin level versus non-treated controls (B16F10 melanoma cells [4]; [6]): 1.38 fold
reduction in melanin content (B16F10 melanoma cells [4]; 25 µM compound, α-MSH 1.0 µM): 45%

Further compounds by falling IC50 (mushroom tyrosinase [1]), results first:

IC50 (mushroom tyrosinase [1]): 92.81 ± 0.89 µM
SMILES: CCOc1cc(/C=C2\SC(=O)NC2=S)ccc1O [Compound 2e, (Z)-5-(3-Ethoxy-4-hydroxybenzylidene)-4-thioxothiazolidin-2-one]

IC50 (mushroom tyrosinase [1]): 82.4 ± 1.26 µM
SMILES: COc1cc(/C=C2\SC(=O)NC2=S)cc(OC)c1O [Compound 2g, (Z)-5-(4-Hydroxy-3,5-dimethoxybenzylidene)-4-thioxothiazolidin-2-one]

IC50 (mushroom tyrosinase [1]): 70.8 ± 1 µM
fold lower mushroom tyrosinase inhibitory activity than compound 2f (mushroom tyrosinase [1]; ratio of IC50 values vs 2f): 4.6 fold
SMILES: COc1cc(/C=C2\SC(=O)NC2=S)ccc1O [Compound 2d, (Z)-5-(4-Hydroxy-3-methoxybenzylidene)-4-thioxothiazolidin-2-one]

IC50 (mushroom tyrosinase [1]): 47.4 ± 2.18 µM
SMILES: O=C1NC(=S)/C(=C/c2ccc(O)c(O)c2)S1 [Compound 2c, (Z)-5-(3,4-Dihydroxybenzylidene)-4-thioxothiazolidin-2-one]

IC50 (mushroom tyrosinase [1]): 28.1 ± 1.16 µM
fold lower tyrosinase inhibitory activity than 2b (mushroom tyrosinase [1]): 60 fold
SMILES: O=C1NC(=S)/C(=C/c2ccc(O)cc2)S1 [Compound 2a, (Z)-5-(4-Hydroxybenzylidene)-4-thioxothiazolidin-2-one]

IC50 (mushroom tyrosinase [1]): 23.3 ± 0.28 µM
SMILES: COc1ccc(/C=C2\SC(=O)NC2=S)cc1OC [Compound 2l, (Z)-5-(3,4-Dimethoxybenzylidene)-4-thioxothiazolidin-2-one]

IC50 (mushroom tyrosinase [1]): 15.2 ± 1.68 µM
mode of mushroom tyrosinase inhibition (mushroom tyrosinase [5]): competitive
SMILES: COc1ccc(/C=C2\SC(=O)NC2=S)cc1O [Compound 2f, (Z)-5-(3-Hydroxy-4-methoxybenzylidene)-4-thioxothiazolidin-2-one]
reduction in cellular tyrosinase activity ([2]; 5 µM compound, α-MSH 1.0 µM): 23%
cellular tyrosinase activity versus non-treated cells ([2]; 5 µM compound, α-MSH 1.0 µM, 48 h (α-MSH alone 2.84-fold)): 2.20 fold
reduction in cellular tyrosinase activity ([2]; 10 µM compound, α-MSH 1.0 µM): 46%
cellular tyrosinase activity versus non-treated cells ([2]; 10 µM compound, α-MSH 1.0 µM, 48 h (α-MSH alone 2.84-fold)): 1.54 fold
reduction in cellular tyrosinase activity ([2]; 25 µM compound, α-MSH 1.0 µM): 59%
cellular tyrosinase activity versus non-treated cells ([2]; 25 µM compound, α-MSH 1.0 µM, 48 h (α-MSH alone 2.84-fold)): 1.18 fold
cytotoxic effect on B16F10 cells (B16F10 melanoma cells [3]): Neither 2b nor 2f exhibited any significant cytotoxic effect
reduction in melanin content (B16F10 melanoma cells [4]; 5 µM compound, α-MSH 1.0 µM): 14%
melanin level versus non-treated controls (B16F10 melanoma cells [4]; 5 µM compound, α-MSH 1.0 µM, 48 h (α-MSH alone 3.51-fold)): 3.03 fold
reduction in melanin content (B16F10 melanoma cells [4]; 10 µM compound, α-MSH 1.0 µM): 46%
melanin level versus non-treated controls (B16F10 melanoma cells [4]; 10 µM compound, α-MSH 1.0 µM, 48 h (α-MSH alone 3.51-fold)): 1.88 fold
reduction in melanin content (B16F10 melanoma cells [4]; 25 µM compound, α-MSH 1.0 µM): 60%
melanin level versus non-treated controls (B16F10 melanoma cells [4]; 25 µM compound, α-MSH 1.0 µM, 48 h (α-MSH alone 3.51-fold)): 1.42 fold

From paper PMC8400311, “Novel Anti-Melanogenic Compounds, (Z)-5-(Substituted Benzylidene)-4-thioxothiazolidin-2-one Derivatives: In Vitro and In Silico Insights” (Molecules, 2021)
